Results: patent US10434083B2, “Transmammary delivery of cyclooxygenase-2 inhibitors for analgesia in neonates” (Iowa State University Research Foundation, Inc., priority 2018, dated 2019)

Experiments:
[1] = Preweaning piglet deaths per sow treatment group; assay type: in vivo, swine
Protocol: Protocols involved intramuscular injection of Firocoxib to lactating sows at either 0.5, 1.0, 1.5 or 2 mg/kg, and analysis in sows and select piglets at 21 days post treatment. Pregnant Yorkshire×Landrace sows (mean±SEM bodyweight, 250.3±7.61 kg) that were approximately 1 week before farrowing were sourced from a commercial swine farm. Each sow was examined by a veterinarian to confirm that she was healthy and pregnant. A unique numerical ear tag (Allflex Global Ear Tags, Allflex USA, Inc., DFW Airport, TX) was placed in the right ear of each sow for identification. The sows were housed in a commercial swine operation at MVS (West Point, Nebr.) in accordance with the recommendations in the Guide for the Care and Use of Agricultural Animals in Agricultural Use and Research and Teaching (Guide for the Care and Use of Agricultural Animals in Agricultural Research and Teaching, 2010). Sows were placed in Quad- or Euro-style farrowing stalls (Thorp Equipment, Thorp, Wis.), depending on availability. Regardless of stall type, each sow was housed in a farrowing crate measuring 0.6 m×2.1 m. Quad and Euro crates had piglet creep areas of 7.0 m^2 and 6.4 m^2, respectively. After farrowing, a heat lamp was provided on one side of the creep area for the piglets in each crate. All sows were fed a diet that met or exceeded National Research Council (NRC, 2012) nutrient requirements and water was provided ad libitum. Each litter provided at least six male and three female piglets for sampling with the exception of one sow that had 5 males and 4 females in the litter, and one sow that had 3 males and 6 females in the litter. Piglets were clinically examined and weighed on Study Day 0 prior to dosing. Cross fostering of the litters was permitted. Bodyweights were used to randomly assign sows to 1 of 4 treatment groups (n=4 sows/group) as detailed in Table 3.
A sample size of 4 sows was selected to describe the pharmacokinetics of firocoxib. For the comparison of plasma cortisol concentrations and average daily gain in bodyweight (ADG), a sample size of 36 piglets/treatment group was calculated to provide Statistical Power of 0.8 assuming an alpha of 0.05, sigma of 0.54 and delta of 0.20. At the time of study commencement (T0), sows received a single dose of firocoxib (Equioxx Injection, Merial, Duluth, Ga.) (Lot number 4VP07, Expiration Date November 2017) administered at either 0.5 mg/kg, 1.0 mg/kg, 1.5 mg/kg, or 2.0 mg/kg by IM injection into the right lateral neck using an 18-gauge, 1.5-inch needle attached to a 20-mL syringe (Table 3). In cases where the calculated dose volume exceeded 20-mL, the remaining volume was administered via IM injection in the left lateral neck muscle.

in vivo = conditions: female, Yorkshire×Landrace, swine
Protocol: Tissue concentrations of firocoxib and its descyclopropylmethyl metabolite were determined using high-pressure liquid chromatography (Agilent 1100 Pump, Column Compartment and Autosampler, Agilent Technologies, Santa Clara, Calif., USA) with mass spectrometry detection (LTQ Ion Trap, Thermo Scientific, San Jose, Calif., USA). The tissue samples analysed were muscle, injection site, kidney, liver, and fat. Eight calibration spikes were prepared in blank porcine tissue in the concentration range of 0.05-10 μg/g. The tissue samples were thawed and homogenized in a Waring blender before extraction and analysis. […]
Plasma and tissue firocoxib concentrations were determined using high-pressure liquid chromatography (Agilent 1100 Pump, Column Compartment and Autosampler, Agilent Technologies, Santa Clara, Calif.) with mass spectrometry detection (LTQ Ion Trap, Thermo Scientific, San Jose, Calif.). […] Full scan MS was used for analyte detection and three fragment ions were used for quantitation of each analyte species. […] Firocoxib and d6-firocoxib were analyzed in positive ion mode. […]
For plasma samples, the calibration curves had correlation coefficients (R^2) exceeding 0.995 across the concentration range. […] The limit of quantitation of the analysis was 1.0 ng/mL, with a limit of detection of 0.2 ng/mL. […]

CC1(C)OC(=O)C(OCC2CC2)=C1c1ccc(S(C)(=O)=O)cc1 [firocoxib]
Preweaning piglet deaths, Total ([1]; sow treatment group #1, 0.5 mg/kg): 2 | Preweaning piglet deaths, Total ([1]; sow treatment group #2, 1.0 mg/kg): 3 | Preweaning piglet deaths, Total ([1]; sow treatment group #3, 1.5 mg/kg): 3 | Preweaning piglet deaths, Total ([1]; sow treatment group #4, 2.0 mg/kg): 0 | concentration at 21 d (in vivo): ≤ 50 ng/g
